Measurements: US20020127228A1, “PGT and apoptosis” (WELFIDE CORPORATION, priority 1998, published 2002)

Columns and labels:
[1] = tested on: differentiated PC12 cells; test: Suppression of apoptosis in differentiated PC12 cells after NGF withdrawal, TUNEL staining; assay type: cell-based, rat; conditions: for TUNEL-positive cells (%): NGF withdrawal
Experimental: (§1) (1) After growing rat adrenal pheochromocytoma PC12 cells (obtained by: ATCC; importer: Dainippon Pharmaceutical) with RPMI1640 containing 10 ml/l heat-inactivated horse serum and 5 ml/l heat-inactivated fetal calf serum, culturing was performed with RPMI1640 containing mouse β NGF (100 ng/ml), N2 supplement, and TIP (5 μg/ml transferrin, 5 μg/ml insulin, and 10 ng/ml progesterone). Differentiation to neuron-like cells was performed.
(§2) (2) Differentiated PC12 cells were washed with Neurobasal culture medium. After replacing the culture medium with RPMI1640 not containing β NGF, N2 supplement, and TIP, mouse β NGF antibodies (final concentration: 50 ng/ml) were added. By culturing for 24 hrs, apoptosis was induced.
(§3) 0.01-1 μM) to fresh culture medium during medium replacement and culturing was performed for the same amount of time. As a negative control, a solvent (ethanol) alone was added in the same manner and culturing was performed for the same period of time. Apoptosis detection was performed by Hoechst 33342 staining (at 1 mM with a reaction in 2 minutes at room temperature) after fixation (room temperature for 30 mins) of cells with a 1% glutaraldehyde solution. Observation was made from 5 arbitrary visual fields using a fluorescence microscope. Total cell and apoptotic cells were counted, and incident of apoptosis was calculated.
As regards the apoptosis-suppressing activity of PGE1 in nerve neurons, the manners other than TUNEL staining for detection of apoptosis were in accordance with ones in Experiment 1. The results are indicated in Table2.

[2] = biological target: T1, PGT (Rattus norvegicus, UniProt Q00910); test: Uptake of tritium-labelled PGE1 into differentiated PC12 cells through PGT; assay type: cell-based; conditions: tritium-labelled PGE1 0.1 μM, mean ± SEM
T1 construct: endogenous in cells; host or cells: differentiated PC12 cells
Experimental: 1) Differentiated PC12 cells and tritium-labelled PGE1 (added concentration: 0.1 μM) were subjected to 10 mins of incubation at 37° C. Afterwards, the cells were washed with ice-cold phosphate buffered saline containing 5 g/l of bovine serum albumin and next washed with ice-cold phosphate buffered saline. Then, radioactivity was measured. The amount of PGE1 uptake into PC12 cells was calculated.
2) Bromcresol green (hereinafter noted as “BrCG”), which is a PGT inhibitor, was placed together in the culture medium at the addition of PGE1. Afterwards, treatment was conducted in the same manner as mentioned in 1).
3) The antisense oligonucleotide specific to PGT cDNA was designed as follows:
Moreover, said antisense was thioate modified. Using Lipofectin (Gibco), PC12 underwent transfection during 2 days prior to the addition of PGE1. Afterwards, treatment was conducted in the same manner as mentioned in 1).

[3] = tested on: differentiated PC12 cells; test: Suppression of apoptosis in differentiated PC12 cells after NGF withdrawal, Hoechst 33342 staining; assay type: cell-based, rat; conditions: for Incidence of apoptosis (%): 24 hrs, NGF withdrawal, mean ± SEM
Experimental: as §1, §2
(3) A PGE1 ethanol solution was added (final concentration:
as §3
(4) The values obtained were expressed as means±SEM. As for statistical analysis, a student's t-test (hereafter noted as a t-test) was used for two groups and Dunnet's test was used after one-way layout dimensional analysis (one-way ANOVA) for numerous groups; critical values for both were considered to be a significant difference below 5%.

[4] = Hypotensive effect in anesthetized normal rats, mean blood pressure; assay type: in vivo, rat; parameters: Decrease in blood pressure: unit not given here; conditions: 100 μg/kg body weight into caudal artery, mean blood pressure before and after, n 3
Experimental: 2) The hypotensive effect of the test drugs was examined. After anesthetizing normal rats (male, body weight of about 300 g) with intraperitoneal administration of Nembutal, the dorsal region was fixed. Next, a cannula was inserted in the carotid artery and blood pressure was measured through a transducer (Nihon Kohden Corporation); simultaneous recording was made in combination with a polygraph (Nihon Kohden Corporation). After dissolving the test drugs in ethanol, and diluted (x200) with saline. Administration was given in the caudal artery in a dose of 100 μg/kg body weight. The mean blood pressure (MBP) was measured. The decrease in blood pressure was calculated from the measured values before and after administration. The n was 3 per group.

CCCCC[C@H](O)/C=C/[C@H]1[C@H](O)CC(=O)[C@@H]1CCCCCCC(=O)O [PGE1, prostaglandin E1]
Effect on cell apoptosis (in words) ([1]; PGE1 0.1 μM and 1 μM): suppressed cell apoptosis
TUNEL-positive cells (%) ([1]; PGE1 0.1 μM): 13.80 ± 0.75%
TUNEL-positive cells (%) ([1]; PGE1 1 μM): 8.10 ± 1.57%
Amount of PGE1 uptake ([2]; 10 mins at 37° C., no BrCG (Table 3)): 73 ± 11 fmol/mg protein/10 mins
Amount of PGE1 uptake ([2]; no antisense (Table 4)): 78 ± 11 fmol/mg protein/10 mins
Incidence of apoptosis (%) ([3]; PGE1 0.01 μM): 21.3 ± 1.5%
Incidence of apoptosis (%) ([3]; PGE1 0.1 μM): 19.1 ± 8.1%
Effect on cell apoptosis (in words) ([3]; PGE1 1 μM): suppressed cell apoptosis
Incidence of apoptosis (%) ([3]; PGE1 1 μM): 17.1 ± 0.6%
Decrease in blood pressure [4]: −55
